Reference: US20260297060A1, “COMPOUNDS FOR THE DEGRADATION OF MUTANT BRAF” (C4 THERAPEUTICS, INC., priority 2023, published 2026)
Like-named read-outs stand apart in the source and are kept apart here.

Key:
A375-NRAS^Q61K cells = experiment: CTGlo Cell Viability Assay, A375-NRAS^Q61K (A375.11) cells, 96 hours; type: cell-based, human; settings: Homo sapiens, 96 h, A375.11 (A375-NRAS^Q61K) cells; for Emax: lowest % viability achieved
Summary of the method: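 Viability as CellTiter-Glo ATP luminescence after 96 h compound exposure at 37 °C; A375.11 (BRAF V600E/NRAS Q61K) cells at 250/well, top final concentration 10 μM in half-log steps. Signal was background-corrected and set relative to DMSO controls. A 4-parameter logistic fit gave GI50 (50% crossing) and Emax.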

BRAF V600E = biological target: T1, BRAF V600E (Homo sapiens, UniProt P15056+Q96SW2, V600E); experiment: BRAF V600E HiBiT Degradation Assay; type: cell-based; settings: A375.10 cells, BRAF V600E
T1 construct: knock-in of the HiBiT tag to the endogenous BRAF V600E locus; host or cells: A375.10 (A375 clonal line, CRISPR HiBiT knock-in at the endogenous BRAF V600E locus)
T1 sequence (P15056 whole entry V600E): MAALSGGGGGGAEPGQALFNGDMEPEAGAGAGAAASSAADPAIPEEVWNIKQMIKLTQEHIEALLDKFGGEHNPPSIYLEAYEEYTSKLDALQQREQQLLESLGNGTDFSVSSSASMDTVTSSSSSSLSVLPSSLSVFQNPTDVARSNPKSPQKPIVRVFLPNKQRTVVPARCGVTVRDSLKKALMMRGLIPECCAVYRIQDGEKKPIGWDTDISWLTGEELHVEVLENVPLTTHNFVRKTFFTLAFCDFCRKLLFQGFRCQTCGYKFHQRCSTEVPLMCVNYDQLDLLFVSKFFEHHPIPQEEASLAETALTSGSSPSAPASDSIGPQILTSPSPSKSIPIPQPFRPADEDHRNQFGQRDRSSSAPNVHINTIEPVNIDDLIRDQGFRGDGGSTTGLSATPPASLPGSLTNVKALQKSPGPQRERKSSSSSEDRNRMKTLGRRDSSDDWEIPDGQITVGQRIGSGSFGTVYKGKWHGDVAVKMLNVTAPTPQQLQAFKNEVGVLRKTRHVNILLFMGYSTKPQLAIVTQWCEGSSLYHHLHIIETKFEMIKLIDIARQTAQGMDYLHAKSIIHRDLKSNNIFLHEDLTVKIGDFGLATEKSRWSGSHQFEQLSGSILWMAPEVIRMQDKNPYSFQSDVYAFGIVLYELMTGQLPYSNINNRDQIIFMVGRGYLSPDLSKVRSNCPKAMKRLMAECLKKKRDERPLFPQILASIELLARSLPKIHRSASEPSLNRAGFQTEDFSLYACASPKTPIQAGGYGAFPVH
T1 sequence (Q96SW2 whole entry): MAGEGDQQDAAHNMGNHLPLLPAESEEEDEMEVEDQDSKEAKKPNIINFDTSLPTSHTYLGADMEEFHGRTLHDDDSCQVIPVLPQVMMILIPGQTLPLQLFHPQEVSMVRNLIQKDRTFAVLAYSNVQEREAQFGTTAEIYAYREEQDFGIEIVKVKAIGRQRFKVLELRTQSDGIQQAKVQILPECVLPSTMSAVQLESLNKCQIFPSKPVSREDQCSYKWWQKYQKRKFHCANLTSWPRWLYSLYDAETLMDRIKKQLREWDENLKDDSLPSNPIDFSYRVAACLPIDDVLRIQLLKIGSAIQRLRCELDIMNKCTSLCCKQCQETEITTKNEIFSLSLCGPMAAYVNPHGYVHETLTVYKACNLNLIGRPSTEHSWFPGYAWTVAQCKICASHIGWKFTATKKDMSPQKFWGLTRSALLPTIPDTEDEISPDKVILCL
T1 sequence (Q16531 whole entry partner): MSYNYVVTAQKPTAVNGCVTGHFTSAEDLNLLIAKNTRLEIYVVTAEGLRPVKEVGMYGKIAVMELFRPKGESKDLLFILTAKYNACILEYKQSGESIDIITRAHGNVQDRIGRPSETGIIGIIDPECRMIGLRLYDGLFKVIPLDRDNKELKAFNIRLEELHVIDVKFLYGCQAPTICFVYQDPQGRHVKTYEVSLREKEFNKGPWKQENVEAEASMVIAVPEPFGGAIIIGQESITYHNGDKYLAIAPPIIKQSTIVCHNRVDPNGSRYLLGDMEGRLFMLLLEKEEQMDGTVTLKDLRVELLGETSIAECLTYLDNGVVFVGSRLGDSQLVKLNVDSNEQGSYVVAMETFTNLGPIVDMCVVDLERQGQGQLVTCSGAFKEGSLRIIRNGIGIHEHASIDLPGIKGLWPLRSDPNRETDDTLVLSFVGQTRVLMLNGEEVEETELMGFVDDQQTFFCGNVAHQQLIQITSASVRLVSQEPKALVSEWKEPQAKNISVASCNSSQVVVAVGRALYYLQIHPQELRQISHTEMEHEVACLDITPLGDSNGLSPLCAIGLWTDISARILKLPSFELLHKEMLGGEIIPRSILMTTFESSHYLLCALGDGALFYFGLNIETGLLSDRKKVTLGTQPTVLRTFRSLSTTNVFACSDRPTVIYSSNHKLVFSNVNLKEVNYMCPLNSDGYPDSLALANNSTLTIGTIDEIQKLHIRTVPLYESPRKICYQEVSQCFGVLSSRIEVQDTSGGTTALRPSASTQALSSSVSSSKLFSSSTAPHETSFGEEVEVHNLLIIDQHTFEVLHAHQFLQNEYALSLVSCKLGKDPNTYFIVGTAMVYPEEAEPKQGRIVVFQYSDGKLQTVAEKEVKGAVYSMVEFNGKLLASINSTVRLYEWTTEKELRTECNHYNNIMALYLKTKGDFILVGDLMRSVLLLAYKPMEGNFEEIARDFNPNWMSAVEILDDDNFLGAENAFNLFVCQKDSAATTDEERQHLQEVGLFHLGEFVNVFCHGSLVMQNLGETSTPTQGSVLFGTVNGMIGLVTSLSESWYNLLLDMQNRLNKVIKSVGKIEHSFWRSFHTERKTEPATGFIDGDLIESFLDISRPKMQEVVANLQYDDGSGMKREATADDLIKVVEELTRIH
Summary of the method: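 Endogenous HiBiT knock-in on BRAF V600E in A375 cells (clone A375.10); 11-point half-log series, top 10 μM, 2, 6 or 24 h at 37° C. Lytic HiBiT luminescence, background-subtracted, normalized to DMSO; 4-parameter fit gives DC50, Emax (residual protein) and IP (inflection point).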

[1] = 2 hours, inflection point, read-out: HiBiT-Degradation A375.10 BRAF 2 hours IP
[2] = 2 hours, read-out: HiBiT-Degradation A375.10 BRAF 2 hours DC50
[3] = 2 hours, residual protein remaining, read-out: HiBiT-Degradation A375.10 BRAF 2 hours Emax
[4] = read-out: HiBiT-Degradation A375.10 BRAF 2 hours DC50, 2 hours
[5] = read-out: HiBiT-Degradation A375.10 BRAF 2 hours IP, 2 hours, inflection point
[6] = HiBiT, 24 hours, read-out: HiBiT-Degradation A375.10 BRAF 24 hours DC50
[7] = HiBiT, 24 hours, read-out: HiBiT-Degradation A375.10 BRAF 24 hours Emax
[8] = HiBiT, 24 hours, read-out: HiBiT-Degradation A375.10 BRAF 24 hours IP

| Compound | GI50 (A375-NRAS^Q61K cells) | DC50 (BRAF V600E; [1]) | DC50 (BRAF V600E; [2]) | Emax (BRAF V600E; [3]) | DC50 (BRAF V600E; [4]) | DC50 (BRAF V600E; [5]) | DC50 (BRAF V600E; [6]) | Emax (BRAF V600E; [7]) | DC50 (BRAF V600E; [8]) | Emax (A375-NRAS^Q61K cells) |
| --- | --- | --- | --- | --- | --- | --- | --- | --- | --- | --- |
| CCN(C)S(=O)(=O)Nc1ccc(F)c(Oc2ccc3ncn(C4CCN(C5CC6(CCN(c7cc8c(cc7F)c(N7CCC(=O)NC7=O)nn8C)CC6)C5)CC4)c(=O)c3c2)c1C#N [Compound 274, 6-[2-cyano-3-[[ethyl(methyl)sulfamoyl]amino]-6-fluoro-phenoxy]-3-[1-[7-[3-(2,4-dioxohexahydropyrimidin-1-yl)-5-fluoro-1-methyl-indazol-6-yl]-7-azaspiro[3.5]nonan-2-yl]-4-piperidyl]-4-oxo-quinazoline] | < 1 µM | < 1 µM | < 1 µM | < 50% | – | – | – | – | – | < 50% |
| CO[C@@H]1CCN(S(=O)(=O)Nc2ccc(F)c(Oc3ccc4ncc(C5CC6(CCN(C7CC8(C7)CN(c7cc9c(cc7F)c(N7CCC(=O)NC7=O)nn9C)C8)CC6)C5)nc4c3)c2C#N)C1 (stereo partly drawn) [Compound 278, (3R)-N-[2-cyano-3-[3-[7-[2-[3-(2,4-dioxohexahydropyrimidin-1-yl)-5-fluoro-1-methyl-indazol-6-yl]-2-azaspiro[3.3]heptan-6-yl]-7-azaspiro[3.5]nonan-2-yl]quinoxalin-6-yl]oxy-4-fluoro-phenyl]-3-methoxy-pyrrolidine-1-sulfonamide] | < 1 µM | – | – | < 50% | < 1 µM | < 1 µM | – | – | – | < 50% |
| CO[C@H]1CCN(S(=O)(=O)Nc2ccc(F)c(Oc3ccc4ncc(C5CC6(CCN(C7CC8(C7)CN(c7cc9c(cc7F)c(N7CCC(=O)NC7=O)nn9C)C8)CC6)C5)nc4c3)c2C#N)C1 (stereo partly drawn) [Compound 279, (3S)-N-[2-cyano-3-[3-[7-[2-[3-(2,4-dioxohexahydropyrimidin-1-yl)-5-fluoro-1-methyl-indazol-6-yl]-2-azaspiro[3.3]heptan-6-yl]-7-azaspiro[3.5]nonan-2-yl]quinoxalin-6-yl]oxy-4-fluoro-phenyl]-3-methoxy-pyrrolidine-1-sulfonamide] | > 10 µM | – | – | 50 to 90% | < 1 µM | < 1 µM | – | – | – | 50 to 90% |
| Cn1nc(N2CCC(=O)NC2=O)c2cc(F)c(N3CC4(CC(N5CCC6(CC5)CC(c5cnc7ccc(Oc8c(F)ccc(NS(=O)(=O)C9CCCC9)c8C#N)cc7n5)C6)C4)C3)cc21 [Compound 283, N-[2-cyano-3-[3-[7-[2-[3-(2,4-dioxohexahydropyrimidin-1-yl)-5-fluoro-1-methyl-indazol-6-yl]-2-azaspiro[3.3]heptan-6-yl]-7-azaspiro[3.5]nonan-2-yl]quinoxalin-6-yl]oxy-4-fluoro-phenyl]cyclopentanesulfonamide] | < 1 µM | – | – | < 50% | < 1 µM | < 1 µM | – | – | – | 50 to 90% |
| CCN(C)S(=O)(=O)Nc1ccc(F)c(Oc2ccc3ncn(C4CC5(C4)CN(CC4CCN(c6cc7c(cc6F)c(N6CCC(=O)NC6=O)nn7C)CC4)C5)c(=O)c3c2)c1C#N [Compound 296, 6-[2-cyano-3-[[ethyl(methyl)sulfamoyl]amino]-6-fluoro-phenoxy]-3-[2-[[1-[3-(2,4-dioxohexahydropyrimidin-1-yl)-5-fluoro-1-methyl-indazol-6-yl]-4-piperidyl]methyl]-2-azaspiro[3.3]heptan-6-yl]-4-oxo-quinazoline] | < 1 µM | < 1 µM | < 1 µM | 50 to 90% | – | – | < 1 µM | < 50% | < 1 µM | 50 to 90% |
| CCN(C)S(=O)(=O)Nc1ccc(F)c(Oc2ccc3ncc(C4CC5(C4)CN(C4CC6(C4)CN(c4cc7c(cc4F)c(N4CCC(=O)NC4=O)nn7C)C6)C5)nc3c2)c1C#N (centres unmarked) [Compound 303, 7-[2-cyano-3-[[ethyl(methyl)sulfamoyl]amino]-6-fluoro-phenoxy]-2-[2-[2-[3-(2,4-dioxohexahydropyrimidin-1-yl)-5-fluoro-1-methyl-indazol-6-yl]-2-azaspiro[3.3]heptan-6-yl]-2-azaspiro[3.3]heptan-6-yl]quinoxaline] | > 10 µM | < 1 µM | 1 to 10 µM | 50 to 90% | – | – | – | – | – | 50 to 90% |

The next lines start with results.

| GI50 (A375-NRAS^Q61K cells) | DC50 (BRAF V600E; [1]) | DC50 (BRAF V600E; [2]) | Emax (BRAF V600E; [3]) | DC50 (BRAF V600E; [4]) | DC50 (BRAF V600E; [5]) | DC50 (BRAF V600E; [6]) | Emax (BRAF V600E; [7]) | DC50 (BRAF V600E; [8]) | Compound | Emax (A375-NRAS^Q61K cells) |
| --- | --- | --- | --- | --- | --- | --- | --- | --- | --- | --- |
| 1 to 10 µM | < 1 µM | 1 to 10 µM | 50 to 90% | – | – | < 1 µM | < 50% | < 1 µM | CCN(C)S(=O)(=O)Nc1ccc(F)c(C(=O)c2ccc3ncn(C4CC5(CCN(C6CC7(C6)CN(c6cc8c(cc6F)c(N6CCC(=O)NC6=O)nn8C)C7)CC5)C4)c(=O)c3c2)c1F (centres unmarked) [Compound 304, 3-[7-[2-[3-(2,4-dioxohexahydropyrimidin-1-yl)-5-fluoro-1-methyl-indazol-6-yl]-2-azaspiro[3.3]heptan-6-yl]-7-azaspiro[3.5]nonan-2-yl]-6-[3-[[ethyl(methyl)sulfamoyl]amino]-2,6-difluoro-benzoyl]-4-oxo-quinazoline] | 50 to 90% |
| < 1 µM | < 1 µM | < 1 µM | < 50% | – | – | < 1 µM | < 50% | < 1 µM | CCN(C)S(=O)(=O)Nc1ccc(F)c(Oc2ccc3ncn(C4CC5(C4)CN(C4CC6(C4)CN(c4cc7c(cc4F)c(N4CCC(=O)NC4=O)nn7C)C6)C5)c(=O)c3c2)c1C#N (centres unmarked) [Compound 305, 6-[2-cyano-3-[[ethyl(methyl)sulfamoyl]amino]-6-fluoro-phenoxy]-3-[2-[2-[3-(2,4-dioxohexahydropyrimidin-1-yl)-5-fluoro-1-methyl-indazol-6-yl]-2-azaspiro[3.3]heptan-6-yl]-2-azaspiro[3.3]heptan-6-yl]-4-oxo-quinazoline] | 50 to 90% |
| > 10 µM | < 1 µM | < 1 µM | 50 to 90% | – | – | – | – | – | CCN(C)S(=O)(=O)Nc1ccc(F)c(C(=O)c2ccc3ncn(C4CC5(C4)CN(C4CC6(C4)CN(c4cc7c(cc4F)c(N4CCC(=O)NC4=O)nn7C)C6)C5)c(=O)c3c2)c1F (centres unmarked) [Compound 306, 3-[2-[2-[3-(2,4-dioxohexahydropyrimidin-1-yl)-5-fluoro-1-methyl-indazol-6-yl]-2-azaspiro[3.3]heptan-6-yl]-2-azaspiro[3.3]heptan-6-yl]-6-[3-[[ethyl(methyl)sulfamoyl]amino]-2,6-difluoro-benzoyl]-4-oxo-quinazoline] | 50 to 90% |
| > 10 µM | < 1 µM | > 10 µM | 50 to 90% | – | – | < 1 µM | < 50% | < 1 µM | CCN(C)S(=O)(=O)Nc1ccc(F)c(Oc2ccc3ncn([C@H]4COC5(C4)CN(C4CCN(c6cc7c(cc6F)c(N6CCC(=O)NC6=O)nn7C)CC4)C5)c(=O)c3c2)c1C#N [Compound 309, (7R)-7-[6-[2-cyano-3-[[ethyl(methyl)sulfamoyl]amino]-6-fluoro-phenoxy]-4-oxo-quinazolin-3-yl]-2-[1-[3-(2,4-dioxohexahydropyrimidin-1-yl)-5-fluoro-1-methyl-indazol-6-yl]-4-piperidyl]-5-oxa-2-azaspiro[3.4]octane] | 50 to 90% |
| 1 to 10 µM | < 1 µM | < 1 µM | < 50% | – | – | < 1 µM | < 50% | < 1 µM | CCN(C)S(=O)(=O)Nc1ccc(F)c(Oc2ccc3ncn([C@H]4COC5(C4)CN(C4CC6(C4)CN(c4cc7c(cc4F)c(N4CCC(=O)NC4=O)nn7C)C6)C5)c(=O)c3c2)c1C#N [Compound 310, (7R)-7-[6-[2-cyano-3-[[ethyl(methyl)sulfamoyl]amino]-6-fluoro-phenoxy]-4-oxo-quinazolin-3-yl]-2-[2-[3-(2,4-dioxohexahydropyrimidin-1-yl)-5-fluoro-1-methyl-indazol-6-yl]-2-azaspiro[3.3]heptan-6-yl]-5-oxa-2-azaspiro[3.4]octane] | 50 to 90% |
| 1 to 10 µM | < 1 µM | 1 to 10 µM | 50 to 90% | – | – | < 1 µM | < 50% | < 1 µM | CCN(C)S(=O)(=O)Nc1ccc(F)c(Oc2ccc3ncn([C@@H]4COC5(C4)CN(C4CC6(C4)CN(c4cc7c(cc4F)c(N4CCC(=O)NC4=O)nn7C)C6)C5)c(=O)c3c2)c1C#N [Compound 311, (7S)-7-[6-[2-cyano-3-[[ethyl(methyl)sulfamoyl]amino]-6-fluoro-phenoxy]-4-oxo-quinazolin-3-yl]-2-[2-[3-(2,4-dioxohexahydropyrimidin-1-yl)-5-fluoro-1-methyl-indazol-6-yl]-2-azaspiro[3.3]heptan-6-yl]-5-oxa-2-azaspiro[3.4]octane] | 50 to 90% |
| < 1 µM | < 1 µM | < 1 µM | 50 to 90% | – | – | < 1 µM | < 50% | < 1 µM | CCN(C)S(=O)(=O)Nc1ccc(F)c(Oc2ccc3ncn(C4CC5(C4)CN(CC4CN(c6cc7c(cc6F)c(N6CCC(=O)NC6=O)nn7C)C4)C5)c(=O)c3c2)c1C#N [Compound 313] | 50 to 90% |
